For orientation: Ki means the equilibrium dissociation constant of an inhibitor or competing ligand from its target. The low end stands for a stronger hold on the target, the high end for a looser hold on the target. What is called IC50 is the concentration that inhibits the measured activity by half.

We go through four molecules from US20220184240A1, “ORGANIC COMPOUNDS” (INTRA-CELLULAR THERAPIES, INC., priority 2019, published 2022).

For experiment [1], the target named is PDE4A (Homo sapiens, UniProt P27815). Kind of experiment: PDE panel inhibitory constant (Ki) determination. Type of experiment: biochemical. On the procedure:
(§1) Inhibitory constant (Ki) values for Compound 1 were determined against a full panel of phosphodiesterase family members. […] In contrast, potency of Compound 1 for PDE1 A, B and C is roughly equivalent.

Experiment [2] addresses T1, PDE1 (Bovine Brain).
T1 construct: Ki; other: PDE1 (Bovine Brain)
Kind of experiment: PDE panel inhibitory constant (Ki) determination. Type of experiment: biochemical. On the procedure:
as §1

Experiment [3] in a line: PDE panel inhibitory constant (Ki) determination. The format is biochemical. The conditions noted are these: PDE1D. On the procedure:
as §1

In experiment [4] the target is PDE2A (Homo sapiens, UniProt O00408). As to the kind of experiment: PDE panel inhibitory constant (Ki) determination. Type of experiment: biochemical. On the procedure:
as §1

Experiment [5] has as its target PDE5 (Homo sapiens, UniProt O76074). As to the kind of experiment: PDE panel inhibitory constant (Ki) determination. The format is biochemical. Here is the method:
as §1

The target in experiment [6] is PDE7B (Homo sapiens, UniProt Q9NP56). As to the kind of experiment: PDE panel inhibitory constant (Ki) determination. The format is biochemical. Here is the method:
as §1

Experiment [7] addresses PDE1A (Homo sapiens, UniProt P54750). Kind of experiment: PDE panel inhibitory constant (Ki) determination. Type of experiment: biochemical. Here is the method: as §1
In experiment [8] the test system is PDE1 (Bovine Brain). As to the kind of experiment: PDE panel inhibitory constant (Ki) determination. The format is biochemical. On the procedure:
as §1

In experiment [9] the test system is PDE6. Kind of experiment: PDE panel inhibitory constant (Ki) determination. Type of experiment: biochemical. Here is the method: as §1
Experiment [10] has as its target PDE1B (Homo sapiens, UniProt Q01064). As to the kind of experiment: PDE panel inhibitory constant (Ki) determination. Type of experiment: biochemical. Here is the method:
as §1

Experiment [11] addresses T2, (Homo sapiens, UniProt Q08499).
T2 construct: Ki; other: PDE1D
Kind of experiment: PDE panel inhibitory constant (Ki) determination. The format is biochemical. The conditions noted are these: PDE1D. Here is the method: as §1

In experiment [12] the target is PDE3B (Homo sapiens, UniProt Q13370). As to the kind of experiment: PDE panel inhibitory constant (Ki) determination. Type of experiment: biochemical. Here is the method:
as §1

Experiment [13] deals with PDE8A (Homo sapiens, UniProt O60658). Kind of experiment: PDE panel inhibitory constant (Ki) determination. The format is biochemical. Here is the method: as §1
Experiment [14] has as its target PDE10A (Homo sapiens, UniProt Q9Y233). Kind of experiment: PDE panel inhibitory constant (Ki) determination. The format is biochemical. Here is the method: as §1
Experiment [15] has as its target T3, PDE6.
T3 construct: Ki; other: PDE6
Kind of experiment: PDE panel inhibitory constant (Ki) determination. Type of experiment: biochemical. On the procedure: as §1

Experiment [16] deals with PDE1C (Homo sapiens, UniProt Q14123). Kind of experiment: PDE panel inhibitory constant (Ki) determination. The format is biochemical. On the procedure:
as §1

The target of experiment [17] is PDE9A (Homo sapiens, UniProt O76083). As to the kind of experiment: PDE panel inhibitory constant (Ki) determination. Type of experiment: biochemical. Here is the method:
as §1

Experiment [18] addresses PDE11A (Homo sapiens, UniProt Q9HCR9). Kind of experiment: PDE panel inhibitory constant (Ki) determination. The format is biochemical. On the procedure:
as §1

For experiment [19], the system named is PDE1 enzymes versus all other PDE families. Kind of experiment: Selectivity over full panel of phosphodiesterase family members. The format is biochemical. On the procedure: as §1
Experiment [20] deals with PDE1 in striatal slices. Kind of experiment: Striatal slice cGMP levels with ionomycin. The conditions noted are these: ionomycin 10 μM alone, in Krebs buffer. Type of experiment: cell-based. Here is the method:
(§2) FIG. 2 illustrates that increased Ca2+ is sufficient to unmask the active site of PDE1 and allow PDE1 inhibitor binding to the active site therefore increasing cGMP. Increased intracellular calcium is sufficient to increase cGMP levels in the presence of PDE1 inhibitor.
(§3) The calcium ionophore ionomycin was used to control intracellular calcium concentrations in the absence of depolarization. Ionomycin (10 μM, in Krebs buffer) increased intracellular calcium, as confirmed by increased calcium-sensitive phosphorylation of Ca2+/calmodulin-dependent protein kinase II (CaMKII), as shown in FIG. 2A. […] Elimination of extracellular calcium by replacing the calcium chloride in the Krebs solution with 3 mM EGTA prevented the elevation in cGMP seen with PDE1 inhibition and ionomycin.

The subject of experiment [21] is Ca2+/calmodulin-dependent protein kinase II (CaMKII). Kind of experiment: CaMKII phosphorylation (Western blotting). The format is cell-based. The conditions noted are these: ionomycin 10 μM, in Krebs buffer. Here is the method: as §2, §3
The target in experiment [22] is Compound 2 binding to PDE1 in mouse cortex. Kind of experiment: EGTA titration of Compound 2 binding (calcium dependency). On the procedure: FIG. 4 illustrates Ca^2+-dependent binding of Compound 2, as defined in Example 1, to mouse cortex. Binding of the radioligand is prevented in the presence of EGTA, a specific chelator of calcium
In a further study, binding of Compound 2 (1.5 nM) to mouse cortex was titrated with different concentration of the calcium chelator EGTA to determine the calcium dependency of the ligand binding. […] Levels of binding activity remaining in the presence of excess (200 uM) EGTA was approximately 5% relative to the binding levels in the absence of EGTA.

The test system of experiment [23] is PDE1 in striatal slices. Kind of experiment: Striatal slice cGMP levels after K+ depolarization. Type of experiment: cell-based. The conditions noted are these: 1 μM compound preincubation, 1-minute high K+ depolarization. Here is the method: FIG. 1 illustrates the effect of PDE1 inhibition on striatal cGMP levels. Striatal slices were preincubated with either vehicle or compound, followed by a 1-minute stimulation with high K+ or vehicle. cGMP levels were normalized to baseline levels for comparison. […] PDE1 inhibition by 1 μM ITI-041 or 1 μM ITI-214 in the presence of K+ depolarization (striped bars).
Striatal tissue slice preparations were used to further study regulation of PDE1 by intracellular calcium concentration. The striatal slice preparation maintains a portion of the circuitry of the intact striatum including interneurons, nerve terminals from cortical and nigral neuronal inputs, and medium spiny neurons, which account for the majority (95%) of neurons. Depolarization of the cell membrane by increasing external potassium (K+) concentration is a well-established method of stimulating striatal slices, particularly to trigger release of neurotransmitters such as glutamate from the nerve terminals. Under these conditions, both voltage gated calcium channels and NMDA receptors are expected to open, allowing an influx of calcium into the cells. The increase in intracellular calcium can both activate PDE1 in the medium spiny neurons and activate nitric oxide synthase (NOS) in the interneurons via calcium-calmodulin binding. […]

Where only a bound is given, the exact number is not on record here.

PDE2A, sequence (O00408 whole entry, species assumed): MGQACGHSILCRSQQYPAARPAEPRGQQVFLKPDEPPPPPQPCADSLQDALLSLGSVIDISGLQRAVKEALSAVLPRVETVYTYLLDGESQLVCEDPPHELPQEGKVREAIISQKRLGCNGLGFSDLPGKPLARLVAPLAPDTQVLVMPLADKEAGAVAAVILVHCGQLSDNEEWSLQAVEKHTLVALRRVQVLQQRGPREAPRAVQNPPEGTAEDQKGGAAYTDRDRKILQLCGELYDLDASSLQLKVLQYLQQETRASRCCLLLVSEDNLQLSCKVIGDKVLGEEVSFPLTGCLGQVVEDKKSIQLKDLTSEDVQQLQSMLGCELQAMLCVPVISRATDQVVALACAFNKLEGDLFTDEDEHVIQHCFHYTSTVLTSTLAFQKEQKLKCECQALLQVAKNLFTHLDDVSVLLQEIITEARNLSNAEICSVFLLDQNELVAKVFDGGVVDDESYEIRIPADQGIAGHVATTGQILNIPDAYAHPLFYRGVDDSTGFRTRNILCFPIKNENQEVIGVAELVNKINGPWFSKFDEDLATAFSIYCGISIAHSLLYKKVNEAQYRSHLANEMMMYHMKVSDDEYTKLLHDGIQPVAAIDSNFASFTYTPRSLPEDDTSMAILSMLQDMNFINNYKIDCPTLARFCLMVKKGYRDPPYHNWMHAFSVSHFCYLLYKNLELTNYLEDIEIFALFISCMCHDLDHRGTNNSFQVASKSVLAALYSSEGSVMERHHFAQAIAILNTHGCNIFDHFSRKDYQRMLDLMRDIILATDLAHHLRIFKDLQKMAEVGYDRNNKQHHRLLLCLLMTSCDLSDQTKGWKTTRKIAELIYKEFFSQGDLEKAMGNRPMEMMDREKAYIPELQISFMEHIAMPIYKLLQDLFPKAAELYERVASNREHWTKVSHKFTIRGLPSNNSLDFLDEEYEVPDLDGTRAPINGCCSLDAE
PDE9A, sequence (O76083 whole entry, species assumed): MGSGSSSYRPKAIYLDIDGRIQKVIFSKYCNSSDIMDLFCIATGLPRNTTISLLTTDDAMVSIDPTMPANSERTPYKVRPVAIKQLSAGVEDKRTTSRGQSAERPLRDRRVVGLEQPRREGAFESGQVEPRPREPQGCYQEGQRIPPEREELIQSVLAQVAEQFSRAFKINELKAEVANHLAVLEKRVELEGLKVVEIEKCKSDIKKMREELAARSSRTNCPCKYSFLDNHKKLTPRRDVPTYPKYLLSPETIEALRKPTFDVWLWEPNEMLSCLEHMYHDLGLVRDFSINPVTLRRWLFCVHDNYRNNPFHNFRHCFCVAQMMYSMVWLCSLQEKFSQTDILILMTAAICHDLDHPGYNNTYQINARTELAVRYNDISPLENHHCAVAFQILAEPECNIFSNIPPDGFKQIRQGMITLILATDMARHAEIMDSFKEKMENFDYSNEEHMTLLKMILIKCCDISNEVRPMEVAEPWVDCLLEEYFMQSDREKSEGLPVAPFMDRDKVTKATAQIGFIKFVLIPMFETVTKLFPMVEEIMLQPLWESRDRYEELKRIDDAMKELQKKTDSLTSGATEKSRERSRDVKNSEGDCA
PDE11A, sequence (Q9HCR9 whole entry, species assumed): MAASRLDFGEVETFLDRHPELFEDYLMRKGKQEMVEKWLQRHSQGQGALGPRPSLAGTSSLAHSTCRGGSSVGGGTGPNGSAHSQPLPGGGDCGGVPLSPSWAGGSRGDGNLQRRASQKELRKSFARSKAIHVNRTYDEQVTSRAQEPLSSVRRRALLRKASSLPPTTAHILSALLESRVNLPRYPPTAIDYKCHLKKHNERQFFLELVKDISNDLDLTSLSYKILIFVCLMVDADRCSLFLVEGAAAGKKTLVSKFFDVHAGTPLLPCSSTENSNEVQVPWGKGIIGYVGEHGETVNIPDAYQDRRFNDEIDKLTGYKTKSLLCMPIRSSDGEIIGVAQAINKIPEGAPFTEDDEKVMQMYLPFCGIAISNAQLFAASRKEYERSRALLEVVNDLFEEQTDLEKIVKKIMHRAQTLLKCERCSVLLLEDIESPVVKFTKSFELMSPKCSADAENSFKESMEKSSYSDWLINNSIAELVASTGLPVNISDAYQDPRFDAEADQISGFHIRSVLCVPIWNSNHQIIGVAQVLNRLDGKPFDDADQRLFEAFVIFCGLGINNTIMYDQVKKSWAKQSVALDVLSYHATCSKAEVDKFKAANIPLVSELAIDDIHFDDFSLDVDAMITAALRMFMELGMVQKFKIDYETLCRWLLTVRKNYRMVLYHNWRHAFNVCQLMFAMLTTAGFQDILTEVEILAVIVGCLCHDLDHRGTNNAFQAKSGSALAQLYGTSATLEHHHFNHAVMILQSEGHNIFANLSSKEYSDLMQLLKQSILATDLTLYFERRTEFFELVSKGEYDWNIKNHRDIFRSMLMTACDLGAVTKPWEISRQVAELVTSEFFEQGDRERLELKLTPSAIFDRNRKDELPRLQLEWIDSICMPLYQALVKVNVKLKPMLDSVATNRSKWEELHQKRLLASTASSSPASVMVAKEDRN
PDE1B, sequence (Q01064 whole entry, species assumed): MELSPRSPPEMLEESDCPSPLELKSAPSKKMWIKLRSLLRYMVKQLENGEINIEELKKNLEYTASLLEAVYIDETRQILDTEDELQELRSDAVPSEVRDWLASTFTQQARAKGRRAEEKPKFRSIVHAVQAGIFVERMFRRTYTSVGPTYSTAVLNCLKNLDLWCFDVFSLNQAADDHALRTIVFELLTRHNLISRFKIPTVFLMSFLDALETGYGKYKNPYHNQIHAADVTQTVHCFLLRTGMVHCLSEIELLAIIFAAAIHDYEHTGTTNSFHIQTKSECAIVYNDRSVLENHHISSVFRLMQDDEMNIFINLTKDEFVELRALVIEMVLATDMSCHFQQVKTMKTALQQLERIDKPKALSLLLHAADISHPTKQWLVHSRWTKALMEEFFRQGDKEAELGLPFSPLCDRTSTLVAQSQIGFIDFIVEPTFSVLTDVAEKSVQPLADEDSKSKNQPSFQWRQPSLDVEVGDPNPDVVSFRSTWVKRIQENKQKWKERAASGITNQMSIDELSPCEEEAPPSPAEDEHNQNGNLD
PDE1A, sequence (P54750 whole entry, species assumed): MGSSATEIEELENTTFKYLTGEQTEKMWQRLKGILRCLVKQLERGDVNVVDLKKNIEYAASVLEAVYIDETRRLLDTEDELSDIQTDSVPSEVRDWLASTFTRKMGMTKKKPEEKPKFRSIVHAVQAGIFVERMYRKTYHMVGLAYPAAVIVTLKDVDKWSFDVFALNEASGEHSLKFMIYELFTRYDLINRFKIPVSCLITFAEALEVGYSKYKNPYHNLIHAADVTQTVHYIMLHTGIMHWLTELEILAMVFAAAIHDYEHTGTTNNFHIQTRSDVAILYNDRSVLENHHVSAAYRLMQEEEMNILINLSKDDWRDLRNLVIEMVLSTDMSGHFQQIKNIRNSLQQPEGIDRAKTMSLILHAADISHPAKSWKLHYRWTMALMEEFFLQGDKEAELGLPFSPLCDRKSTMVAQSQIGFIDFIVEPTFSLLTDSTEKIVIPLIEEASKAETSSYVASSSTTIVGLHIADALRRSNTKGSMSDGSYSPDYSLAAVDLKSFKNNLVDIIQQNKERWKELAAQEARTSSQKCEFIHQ
PDE4A, sequence (P27815 whole entry, species assumed): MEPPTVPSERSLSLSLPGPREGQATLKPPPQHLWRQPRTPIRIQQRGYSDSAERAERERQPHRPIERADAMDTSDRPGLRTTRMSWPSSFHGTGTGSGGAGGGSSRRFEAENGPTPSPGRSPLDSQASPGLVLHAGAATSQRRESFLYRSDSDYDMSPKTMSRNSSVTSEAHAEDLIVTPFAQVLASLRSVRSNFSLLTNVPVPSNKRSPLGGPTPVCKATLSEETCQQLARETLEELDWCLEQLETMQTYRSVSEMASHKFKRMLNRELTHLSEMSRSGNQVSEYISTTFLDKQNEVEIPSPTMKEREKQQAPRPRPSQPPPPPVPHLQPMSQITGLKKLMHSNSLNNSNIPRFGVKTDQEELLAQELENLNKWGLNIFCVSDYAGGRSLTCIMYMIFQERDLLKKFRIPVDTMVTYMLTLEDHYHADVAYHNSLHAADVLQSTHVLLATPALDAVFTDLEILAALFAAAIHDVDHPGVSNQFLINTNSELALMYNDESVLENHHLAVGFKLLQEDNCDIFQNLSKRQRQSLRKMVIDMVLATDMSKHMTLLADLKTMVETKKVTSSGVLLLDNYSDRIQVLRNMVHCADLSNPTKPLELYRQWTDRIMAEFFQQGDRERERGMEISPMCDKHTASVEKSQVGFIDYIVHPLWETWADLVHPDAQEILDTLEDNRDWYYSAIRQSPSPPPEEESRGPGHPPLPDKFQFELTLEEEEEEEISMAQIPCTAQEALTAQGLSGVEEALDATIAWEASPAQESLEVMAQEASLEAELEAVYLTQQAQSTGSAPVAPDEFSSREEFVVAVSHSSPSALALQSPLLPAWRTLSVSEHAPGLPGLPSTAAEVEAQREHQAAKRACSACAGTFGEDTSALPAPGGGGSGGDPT
PDE7B, sequence (Q9NP56 whole entry, species assumed): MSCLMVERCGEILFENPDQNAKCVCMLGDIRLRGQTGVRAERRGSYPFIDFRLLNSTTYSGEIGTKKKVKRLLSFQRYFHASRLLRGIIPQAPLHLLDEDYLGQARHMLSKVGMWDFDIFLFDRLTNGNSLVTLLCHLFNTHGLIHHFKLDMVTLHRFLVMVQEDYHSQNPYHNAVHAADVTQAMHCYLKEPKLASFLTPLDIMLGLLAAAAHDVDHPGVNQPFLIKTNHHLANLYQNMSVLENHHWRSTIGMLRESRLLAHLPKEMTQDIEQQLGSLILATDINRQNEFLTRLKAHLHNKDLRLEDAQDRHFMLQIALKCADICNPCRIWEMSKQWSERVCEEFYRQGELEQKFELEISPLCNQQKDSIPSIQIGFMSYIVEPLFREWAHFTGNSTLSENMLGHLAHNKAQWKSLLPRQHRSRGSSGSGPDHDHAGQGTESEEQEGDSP

For `CN1C(=O)c2c(nn(Cc3ccc(C4CCCN4C)cc3)c2Nc2ccc(F)cc2)N2CC(C)(C)N=C12` (stereo not shown) [Compound 1, 3-((4-fluorophenyl)amino)-5,7,7-trimethyl-2-(4-(1-methylpyrrolidin-2-yl)benzyl)-7,8-dihydro-2H-imidazo[1,2-a]pyrazolo[4,3-e]pyrimidin-4(5H)-one], the Ki in experiment [1] was 6.6 µM; in [2], 0.001 µM; in [4] it was above 100 µM; in [5], 48.9 µM; in experiment [6], 13.1 µM; in experiment [7] it was 0.0015 µM. Moreover, the inhibition constant Ki is 0.0092 µM in experiment [10]; 2.4 µM in experiment [11]; 78.9 µM in experiment [12]; above 100 µM in [13]; 42.9 µM in experiment [14]; 14.1 µM in [15]. The values for the Ki in experiment [16], in [17] and in experiment [18] were 0.0013 µM, above 100 µM and 40.7 µM, respectively. For the same molecule, the “Ratio PDEx/PDE1A” value in experiment [1] is given as 4,263; in experiment [3], 1,561; in experiment [4], >64,589; in [5], 31,595; in experiment [6], 8,448; in experiment [7] it was 1. For the same molecule, the “Ratio PDEx/PDE1A” value in experiment [8] is listed as 0.67; in experiment [9], 9,122; in experiment [10], 5.9; in experiment [12], 50,983; in [13] it was >64,589; in experiment [14] it was 27,687. The “Ratio PDEx/PDE1A” value is 0.85 in experiment [16], >64,589 in [17] and 26,289 in [18]. The “selectivity toward all other PDE families” value in [19] is reported as above 1000 fold.
Take `C[C@H](CCC(=O)O)C[C@H](C)C[C@H](C)C(=O)/C=C(\O)[C@H](C)C[C@H](C)C/C=C/[C@@H](C)[C@@H](O)[C@@H](C)[C@@H](O)C[C@@H]1CC[C@@](C)([C@H]2CC[C@@](C)([C@@H](C)O)O2)O1` [Ionomycin, ionomycin]: the “striatal cGMP levels” value in experiment [20] is recorded as “did not lead to elevated cGMP levels”. Also, the “calcium-sensitive phosphorylation of CaMKII” value in [21] is on record as “increased”.
Turning to `O=C(O)CN(CCOCCOCCN(CC(=O)O)CC(=O)O)CC(=O)O` [EGTA], in [22] (Compound 2 1.5 nM, mouse cortex, read-out: IC50 for decrease of specific binding of Compound 2), the half-maximal inhibitory concentration (IC50) was 7.7 µM. Also, the “binding of the radioligand in the presence of EGTA” value in [22] (FIG. 4, mouse cortex) is reported as “prevented”. Further, the “binding activity remaining relative to absence of EGTA” value in experiment [22] (excess (200 uM) EGTA, mouse cortex) was “approximately 5%”.
Turning to `CN1C(=O)c2c(nn(Cc3ccc(-c4cccc(F)n4)cc3)c2Nc2ccccc2)N2C1=N[C@@H]1CCC[C@@H]12` [ITI-214], the “striatal cGMP levels” value in experiment [23] was “increased cyclic nucleotide levels”.
